The assay addresses T1, human T-bet (Homo sapiens, UniProt Q9UL17).
T1 construct: expressed in transfected cells; host or cells: engineered HEK cells (HEKT-bet)
T1 sequence (Q9UL17 1-535): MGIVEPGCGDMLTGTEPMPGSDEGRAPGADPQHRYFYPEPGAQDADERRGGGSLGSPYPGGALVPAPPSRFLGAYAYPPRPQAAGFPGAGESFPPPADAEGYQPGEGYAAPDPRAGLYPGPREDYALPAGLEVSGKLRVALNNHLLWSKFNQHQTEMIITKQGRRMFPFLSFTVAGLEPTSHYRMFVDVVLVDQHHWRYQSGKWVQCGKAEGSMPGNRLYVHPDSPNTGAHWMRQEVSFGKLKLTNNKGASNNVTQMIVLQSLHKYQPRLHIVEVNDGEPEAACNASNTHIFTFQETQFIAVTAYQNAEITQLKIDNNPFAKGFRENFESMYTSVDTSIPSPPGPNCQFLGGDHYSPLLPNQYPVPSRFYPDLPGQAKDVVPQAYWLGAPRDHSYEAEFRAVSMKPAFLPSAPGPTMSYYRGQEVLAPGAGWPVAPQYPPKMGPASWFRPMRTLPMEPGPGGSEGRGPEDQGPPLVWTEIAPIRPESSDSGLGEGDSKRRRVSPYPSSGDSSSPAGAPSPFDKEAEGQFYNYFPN
The experiment in a line: HEKT-bet-luc assay (T-bet dependent luciferase reporter in engineered HEK cells). It counts as cell-based. As to conditions: Table 3; HEKT-bet cells, compound 24 hours; IC50 normalized to reference ER-213038; read-out: IC50. As to the method:
HEKT-bet-luc assay: This assay measures a T-bet dependent reporter (luciferase) activity in engineered HEK cells that express a human T-bet and a T-box responsive element driving luciferase reporter. HEKT-bet cells were plated at 2×10^4/well in 96-well plate and compound was added into cell culture for 24 hours. Luciferase activity was measured by adding 50 μl of Steady-Glo reagent (Promega) and samples were read in Victor V reader (PerkinElmer). The IC50 values were calculated utilizing a maximum value corresponding to the amount of luciferase in the absence of a test compound and a minimum value corresponding to a test compound value obtained at maximum inhibition.
Determination of Normalized HEKT-bet IC50 values: Compounds were assayed in microtiter plates. Each plate included a reference compound which was ER-213038. The un-normalized IC50 value for a particular compound was divided by the IC50 value determined for the reference compound in the same microtiter plate to provide a relative potency value. The relative potency value was then multiplied by the established potency of the reference compound to provide the normalized HEKT-bet IC50 value. […] The IC50 values provided herein were obtained using this normalization method.
In general terms: A reporter such as luciferase makes a cellular process visible.

The results in this text go back to US7666875B2, “Hydantoin compounds” (Eisai R&D Management Co., Ltd., priority 2005, dated 2010).

For orientation: IC50 means the point on the concentration scale where inhibition reaches its midpoint. With `COCCN1C(=O)N(CCCc2cccnc2)C(=O)C12CCN(Cc1ccnc3ccccc13)CC2` [Example 81], the IC50 was determined as 650 nM.

For `COCCN1C(=O)N(CC#Cc2cccc(OC)c2)C(=O)C12CCN(Cc1ccccc1)CC2` [Example 82], the IC50 was 650 nM.

Regarding `COc1cc(CN2CCC3(CC2)C(=O)N(C/C=C/c2ccccc2)C(=O)N3CCn2cccc2)cc(OC)c1` [Example 83], the 50% inhibitory concentration (IC50) turned out to be 667 nM.

With `COCCN1C(=O)N(Cc2cccc(OC)c2)C(=O)C12CCN(Cc1cccc(-c3cccc(O)c3)c1)CC2` [Example 84], the IC50 came to 681 nM.

Take `COCCN1C(=O)N(Cc2cccc(OC)c2)C(=O)C12CCN(Cc1cccc(-c3ccsc3)c1)CC2` [Example 85]: the IC50 stood at 750 nM.

As for `COc1cc(CN2CCC3(CC2)C(=O)N(C/C=C/c2ccccc2)C(=O)N3CC=C(C)C)cc(OC)c1` [Example 86], the IC50 came to 757 nM.

For `COCCN1C(=O)N(Cc2cccc(OC)c2)C(=O)C12CCN(Cc1c(Cl)cccc1Cl)CC2` [Example 87], the IC50 was 782 nM.

On to `O=C1N(C/C=C/c2ccccc2)C(=O)C2(CCN(Cc3cccc4ccccc34)CC2)N1CCCO` [Example 88], for which the IC50 is 798 nM.

Take `COCCN1C(=O)N(C/C=C/Cc2cccc(OC)c2)C(=O)C12CCN(Cc1ccccc1)CC2` [Example 89]: the IC50 is 835 nM.

As for `COCCN1C(=O)N(CCCc2ccccc2)C(=O)C12CCN(Cc1ccccc1)CC2` [Example 90], the IC50 was 838 nM.

Consider `COCCN1C(=O)N(Cc2cccc(OC)c2)C(=O)C12CCN(Cc1cc(C)c(C)s1)CC2` [Example 91], for which the IC50 turned out to be 845 nM.

As to `COCCN1C(=O)N(Cc2cccc(OC)c2)C(=O)C12CCN(Cc1cccc(-c3ccc4[nH]ccc4c3)c1)CC2` [Example 92], the IC50 was 868 nM.

Take `COCCN1C(=O)N(CCCCCCCCO)C(=O)C12CCN(Cc1ccccc1)CC2` [Example 93]: the IC50 is 914 nM.

Turning to `COCCN1C(=O)N(Cc2ccoc2)C(=O)C12CCN(Cc1cc(OC)cc(OC)c1)CC2` [Example 94], the IC50 worked out at 936 nM.

As to `CCN1C(=O)N(Cc2ccc3ccccc3c2)C(=O)C12CCN(Cc1ccc3ccccc3c1)CC2` [Example 95], the IC50 was determined as 970 nM.

For `COCCN1C(=O)N(Cc2ccc3cc4ccccc4cc3c2)C(=O)C12CCN(Cc1ccccc1)CC2` [Example 96], the IC50 came to 1030 nM.

Regarding `COc1cccc(CN2CCC3(CC2)C(=O)N(Cc2cc(OC)cc(OC)c2)C(=O)N3Cc2ccc3c(c2)nnn3C)c1` [Example 97], the half-inhibitory concentration (IC50) came to 1080 nM.

As to `COc1cccc(CN2C(=O)N(Cc3cccc(C#N)c3)C3(CCN(Cc4ccccc4)CC3)C2=O)c1` [Example 98], the IC50 stood at 1100 nM.

Consider `COc1cc(CN2CCC3(CC2)C(=O)N(Cc2cc(OC)cc(OC)c2)C(=O)N3CSC)cc(OC)c1` [Example 99], for which the IC50 stood at 1150 nM.

On to `COCCN1C(=O)N(Cc2ccc(C(=O)c3ccccc3)cc2)C(=O)C12CCN(Cc1ccccc1)CC2` [Example 100], for which the IC50 turned out to be 1240 nM.

`COCCN1C(=O)N(Cc2cccc(OC)c2)C(=O)C12CCN(Cc1cccc3nsnc13)CC2` [Example 101]: the IC50 was 1240 nM.

On to `COCCN1C(=O)N(Cc2cccc(OC)c2)C(=O)C12CCN(Cc1cc(F)cc3c1OCOC3)CC2` [Example 102], for which the IC50 was 1320 nM.

As for `COCCN1C(=O)N(Cc2cccc(OC)c2)C(=O)C12CCN(Cc1ccccc1OC(F)(F)F)CC2` [Example 103], the IC50 was determined as 1340 nM.

On to `CCOC(=O)CCCCN1C(=O)N(Cc2cccc(OC)c2)C(=O)C12CCN(Cc1ccccc1)CC2` [Example 104], for which the IC50 was 1390 nM.

For the molecule `COc1cccc(CN2C(=O)N(Cc3cccc4cccnc34)C3(CCN(Cc4cccc5ccccc45)CC3)C2=O)c1` [Example 105], the IC50 stood at 1390 nM.

As to `COCCN1C(=O)N(Cc2cccc(OC)c2)C(=O)C12CCN(C1CCc3ccc(C)cc31)CC2` (stereo not drawn) [Example 106], the IC50 was 1420 nM.

Regarding `COCCN1C(=O)N(CC(=O)c2ccc3ccccc3c2)C(=O)C12CCN(Cc1ccccc1)CC2` [Example 107], the IC50 was 1460 nM.
